# What was measured:
# [1] = tested on: subjects with moderate-to-severe plaque psoriasis; experiment: PSSD symptom and sign scores, Example 2; type: in vivo, human
# From the text: Secondary endpoints included additional change from baseline of Example 1 in PASI, IGA, and PSSD at Week 52, including the proportions of subjects that achieved PAST 90, PAST 100, an IGA score of cleared (0) or minimal (1), PSSD symptoms score=0, and PSSD signs score=0.
# [2] = tested on: subjects with moderate-to-severe plaque psoriasis; experiment: Safety, adverse events, Example 1; conditions: 16-week study
# Protocol: Adverse events were reported and followed by the investigator. Any clinically relevant changes occurring during the study were recorded. Any clinically significant abnormalities persisting at the end of the study/early withdrawal were followed by the investigator until resolution or until a clinically stable condition was reached if possible. The evaluations of safety and tolerability include: physical examinations, vital signs, electrocardiograms, clinical safety laboratory assessments, review of concomitant medication, pregnancy testing, suicidal ideation evaluation via the Columbia—Suicide Severity Rating Scale, and tuberculosis evaluation.
# Safety was assessed among all randomized and treated participants who received at least 1 dose of study agent (partial or complete) according to the assigned treatment received during the study. This is also referred to as the safety analysis set.
# [3] = tested on: subjects with moderate-to-severe plaque psoriasis; experiment: Elevated liver function tests; type: in vivo, human; conditions: through Week 56
# [4] = 25 mg BID, at least 1 post-baseline value
# [5] = 25 mg BID, baseline ≤ULN and at least 1 post-baseline value
# [6] = 25 mg QD, at least 1 post-baseline value
# [7] = 25 mg QD, baseline ≤ULN and at least 1 post-baseline value
# [8] = 50 mg QD, at least 1 post-baseline value
# [9] = 50 mg QD, baseline ≤ULN and at least 1 post-baseline value
# [10] = 100 mg BID, at least 1 post-baseline value
# [11] = 100 mg BID, baseline ≤ULN and at least 1 post-baseline value
# [12] = 100 mg QD, at least 1 post-baseline value
# [13] = 100 mg QD, baseline ≤ULN and at least 1 post-baseline value
# [14] = Combined, at least 1 post-baseline value
# [15] = Combined, baseline ≤ULN and at least 1 post-baseline value
# [16] = Placebo → 100 mg QD, at least 1 post-baseline value
# [17] = Placebo → 100 mg QD, baseline ≤ULN and at least 1 post-baseline value
structure (smiles),measurement,setting,value
"CC(=O)NCCCC[C@@H]1NC(=O)[C@H](Cc2c[nH]c3c(C)cccc23)NC(=O)[C@H]([C@@H](C)O)NC(=O)[C@H](CC(N)=O)NC(=O)[C@@H](NC(C)=O)C(C)(C)SSC(C)(C)[C@@H](C(=O)N[C@@H](Cc2ccc(OCCN)cc2)C(=O)N[C@@H](Cc2ccc3ccccc3c2)C(=O)NC2(C(=O)N[C@@H](CCC(=O)O)C(=O)N[C@@H](CC(N)=O)C(=O)N[C@@H](Cc3cccnc3)C(=O)N(C)CC(N)=O)CCOCC2)NC1=O [IL-23 receptor antagonist peptide, Ac-[Pen]*-N-T-[W(7-Me)]-[Lys(Ac)]-[Pen]*-Phe[4-(2-aminoethoxy)]-[2-Nal]-[THP]-E-N-[3-Pal]-Sarc-NH2 (*[Pen]-[Pen]* formdisulfidebond)]",Subjects Achieving PSSD Sign Score 0 at Week 52,"[1]; 50 mg QD, Subjects w/Baseline PSSD Sign Score ≥1 (Table 26, second block)",5 (11.6%)
same,Subjects achieving PSSD Sign Score = 0 at Week 52,"[1]; 100 mg QD, subjects with Baseline PSSD Sign Score ≥1",6 (14.0%)
same,"COVID-19, subjects",[2]; 25 mg BID,(19.5%)
same,"Diarrhea, subjects",[2]; 25 mg BID,(4.9%)
same,"Discontinued study agent because of adverse events, subjects",[2]; 25 mg BID,(2.3%)
same,"Gastrointestinal disorders, subjects",[2]; 25 mg BID,(9.8%)
same,"Headache, subjects",[2]; 25 mg BID,(2.4%)
same,"Infections and infestations, subjects",[2]; 25 mg BID,(34.1%)
same,"Nasopharyngitis, subjects",[2]; 25 mg BID,(7.3%)
same,"Nervous system disorders, subjects",[2]; 25 mg BID,(4.9%)
same,"Respiratory, thoracic and mediastinal disorders, subjects",[2]; 25 mg BID,0
same,Subjects with 1 or more Adverse events,[2]; 25 mg BID,(48.8%)
same,"Upper respiratory tract infection, subjects",[2]; 25 mg BID,0
same,"COVID-19, subjects",[2]; 25 mg QD,(11.6%)
same,"Diarrhea, subjects",[2]; 25 mg QD,(4.7%)
same,"Discontinued study agent because of adverse events, subjects",[2]; 25 mg QD,(7.0%)
same,"Gastrointestinal disorders, subjects",[2]; 25 mg QD,(7.0%)
same,"Headache, subjects",[2]; 25 mg QD,0
same,"Infections and infestations, subjects",[2]; 25 mg QD,(34.9%)
same,"Nasopharyngitis, subjects",[2]; 25 mg QD,(2.3%)
same,"Nervous system disorders, subjects",[2]; 25 mg QD,0
same,"Respiratory, thoracic and mediastinal disorders, subjects",[2]; 25 mg QD,(2.3%)
same,Subjects with 1 or more Adverse events,[2]; 25 mg QD,(46.5%)
same,"Upper respiratory tract infection, subjects",[2]; 25 mg QD,(7.0%)
same,"COVID-19, subjects",[2]; 50 mg QD,(7.0%)
same,"Diarrhea, subjects",[2]; 50 mg QD,(9.3%)
same,"Discontinued study agent because of adverse events, subjects",[2]; 50 mg QD,(2.3%)
same,"Gastrointestinal disorders, subjects",[2]; 50 mg QD,(14.0%)
same,"Headache, subjects",[2]; 50 mg QD,(2.3%)
same,"Infections and infestations, subjects",[2]; 50 mg QD,(39.5%)
same,"Nasopharyngitis, subjects",[2]; 50 mg QD,(18.6%)
same,"Nervous system disorders, subjects",[2]; 50 mg QD,(7.0%)
same,"Respiratory, thoracic and mediastinal disorders, subjects",[2]; 50 mg QD,(2.3%)
same,Subjects with 1 or more Adverse events,[2]; 50 mg QD,(60.5%)
same,"Upper respiratory tract infection, subjects",[2]; 50 mg QD,0
same,"COVID-19, subjects",[2]; 100 mg BID,(9.5%)
same,"Diarrhea, subjects",[2]; 100 mg BID,(2.4%)
same,"Discontinued study agent because of adverse events, subjects",[2]; 100 mg BID,0
same,"Gastrointestinal disorders, subjects",[2]; 100 mg BID,(16.7%)
same,"Headache, subjects",[2]; 100 mg BID,(2.4%)
same,"Infections and infestations, subjects",[2]; 100 mg BID,(26.2%)
same,"Nasopharyngitis, subjects",[2]; 100 mg BID,(4.8%)
same,"Nervous system disorders, subjects",[2]; 100 mg BID,(4.8%)
same,"Respiratory, thoracic and mediastinal disorders, subjects",[2]; 100 mg BID,(4.8%)
same,Subjects with 1 or more Adverse events,[2]; 100 mg BID,(61.9%)
same,"Upper respiratory tract infection, subjects",[2]; 100 mg BID,(4.8%)
same,"COVID-19, subjects",[2]; 100 mg QD,(7.0%)
same,"Diarrhea, subjects",[2]; 100 mg QD,(2.3%)
same,"Discontinued study agent because of adverse events, subjects",[2]; 100 mg QD,0
same,"Gastrointestinal disorders, subjects",[2]; 100 mg QD,(9.3%)
same,"Headache, subjects",[2]; 100 mg QD,(7.0%)
same,"Infections and infestations, subjects",[2]; 100 mg QD,(16.3%)
same,"Nasopharyngitis, subjects",[2]; 100 mg QD,(2.3%)
same,"Nervous system disorders, subjects",[2]; 100 mg QD,(7.0%)
same,"Respiratory, thoracic and mediastinal disorders, subjects",[2]; 100 mg QD,(7.0%)
same,Subjects with 1 or more Adverse events,[2]; 100 mg QD,(44.2%)
same,"Upper respiratory tract infection, subjects",[2]; 100 mg QD,0
same,"Deaths, MACE or malignancies",[2],"no deaths, MACE or malignancies"
same,"COVID-19, subjects",[2]; Combined doses,(10.8%)
same,"Diarrhea, subjects",[2]; Combined doses,(4.7%)
same,"Discontinued study agent because of adverse events, subjects",[2]; Combined doses,(2.3%)
same,"Gastrointestinal disorders, subjects",[2]; Combined doses,(11.3%)
same,"Headache, subjects",[2]; Combined doses,(2.8%)
same,"Infections and infestations, subjects",[2]; Combined doses,(30.2%)
same,"Nasopharyngitis, subjects",[2]; Combined doses,(7.1%)
same,"Nervous system disorders, subjects",[2]; Combined doses,(4.7%)
same,"Respiratory, thoracic and mediastinal disorders, subjects",[2]; Combined doses,(3.3%)
same,Subjects with 1 or more Adverse events,[2]; Combined doses,(52.4%)
same,"Upper respiratory tract infection, subjects",[2]; Combined doses,(2.4%)
same,Dose dependence of occurrence of AEs,[2]; across treatment groups,no evidence of dose-dependent increase
same,Tolerability,[2]; all treatment groups,well-tolerated
same,Subjects with Total Bilirubin >2 × ULN and either AST or ALT ≥3 × ULN at the same timepoint,[3]; 25 mg BID,0
same,Subjects with ALT ≥5 × ULN,[3]; [4],0
same,Subjects with ALT ≥10 × ULN,[3]; [4],0
same,Subjects with ALT ≥20 × ULN,[3]; [4],0
same,Subjects with AST ≥5 × ULN,[3]; [4],0
same,Subjects with AST ≥10 × ULN,[3]; [4],0
same,Subjects with AST ≥20 × ULN,[3]; [4],0
same,Subjects with ALT ≥5 × ULN,[3]; [5],0
same,Subjects with ALT ≥10 × ULN,[3]; [5],0
same,Subjects with ALT ≥20 × ULN,[3]; [5],0
same,Subjects with AST ≥5 × ULN,[3]; [5],0
same,Subjects with AST ≥10 × ULN,[3]; [5],0
same,Subjects with AST ≥20 × ULN,[3]; [5],0
same,Subjects with Total Bilirubin >2 × ULN and either AST or ALT ≥3 × ULN at the same timepoint,[3]; 25 mg QD,0
same,Subjects with ALT >1 × ULN,[3]; [6],7
same,Subjects with ALT ≥10 × ULN,[3]; [6],0
same,Subjects with ALT ≥20 × ULN,[3]; [6],0
same,Subjects with AST ≥5 × ULN,[3]; [6],0
same,Subjects with AST ≥10 × ULN,[3]; [6],0
same,Subjects with AST ≥20 × ULN,[3]; [6],0
same,Subjects with ALT ≥10 × ULN,[3]; [7],0
same,Subjects with ALT ≥20 × ULN,[3]; [7],0
same,Subjects with AST ≥5 × ULN,[3]; [7],0
same,Subjects with AST ≥10 × ULN,[3]; [7],0
same,Subjects with AST ≥20 × ULN,[3]; [7],0
same,Subjects with Total Bilirubin >2 × ULN and either AST or ALT ≥3 × ULN at the same timepoint,[3]; 50 mg QD,0
same,Subjects with ALT ≥3 × ULN,[3]; [8],0
same,Subjects with ALT ≥5 × ULN,[3]; [8],0
same,Subjects with ALT ≥10 × ULN,[3]; [8],0
same,Subjects with ALT ≥20 × ULN,[3]; [8],0
same,Subjects with AST ≥3 × ULN,[3]; [8],0
same,Subjects with AST ≥5 × ULN,[3]; [8],0
same,Subjects with AST ≥10 × ULN,[3]; [8],0
same,Subjects with AST ≥20 × ULN,[3]; [8],0
same,Subjects with ALT ≥3 × ULN,[3]; [9],0
same,Subjects with ALT ≥5 × ULN,[3]; [9],0
same,Subjects with ALT ≥10 × ULN,[3]; [9],0
same,Subjects with ALT ≥20 × ULN,[3]; [9],0
same,Subjects with AST ≥3 × ULN,[3]; [9],0
same,Subjects with AST ≥5 × ULN,[3]; [9],0
same,Subjects with AST ≥10 × ULN,[3]; [9],0
same,Subjects with AST ≥20 × ULN,[3]; [9],0
same,Subjects with Total Bilirubin >2 × ULN and either AST or ALT ≥3 × ULN at the same timepoint,[3]; 100 mg BID,0
same,Subjects with ALT ≥3 × ULN,[3]; [10],5
same,Subjects with ALT ≥5 × ULN,[3]; [10],0
same,Subjects with ALT ≥10 × ULN,[3]; [10],0
same,Subjects with ALT ≥20 × ULN,[3]; [10],0
same,Subjects with AST ≥10 × ULN,[3]; [10],0
same,Subjects with AST ≥20 × ULN,[3]; [10],0
same,Subjects with ALT ≥5 × ULN,[3]; [11],0
same,Subjects with ALT ≥10 × ULN,[3]; [11],0
same,Subjects with ALT ≥20 × ULN,[3]; [11],0
same,Subjects with AST >1 × ULN,[3]; [11],4
same,Subjects with AST ≥10 × ULN,[3]; [11],0
same,Subjects with AST ≥20 × ULN,[3]; [11],0
same,Subjects with Total Bilirubin >2 × ULN and either AST or ALT ≥3 × ULN at the same timepoint,[3]; 100 mg QD,0
same,Subjects with ALT ≥5 × ULN,[3]; [12],0
same,Subjects with ALT ≥10 × ULN,[3]; [12],0
same,Subjects with ALT ≥20 × ULN,[3]; [12],0
same,Subjects with AST >1 × ULN,[3]; [12],9
same,Subjects with AST ≥5 × ULN,[3]; [12],0
same,Subjects with AST ≥10 × ULN,[3]; [12],0
same,Subjects with AST ≥20 × ULN,[3]; [12],0
same,Subjects with ALT ≥5 × ULN,[3]; [13],0
same,Subjects with ALT ≥10 × ULN,[3]; [13],0
same,Subjects with ALT ≥20 × ULN,[3]; [13],0
same,Subjects with AST ≥5 × ULN,[3]; [13],0
same,Subjects with AST ≥10 × ULN,[3]; [13],0
same,Subjects with AST ≥20 × ULN,[3]; [13],0
same,Subjects with Total Bilirubin >2 × ULN and either AST or ALT ≥3 × ULN at the same timepoint,[3]; Combined,0
same,Subjects with ALT ≥10 × ULN,[3]; [14],0
same,Subjects with ALT ≥20 × ULN,[3]; [14],0
same,Subjects with AST ≥10 × ULN,[3]; [14],0
same,Subjects with AST ≥20 × ULN,[3]; [14],0
same,Subjects with ALT ≥10 × ULN,[3]; [15],0
same,Subjects with ALT ≥20 × ULN,[3]; [15],0
same,Subjects with AST ≥10 × ULN,[3]; [15],0
same,Subjects with AST ≥20 × ULN,[3]; [15],0
same,Subjects with Total Bilirubin >2 × ULN and either AST or ALT ≥3 × ULN at the same timepoint,[3]; Placebo → 100 mg QD,0
same,Subjects with ALT ≥5 × ULN,[3]; [16],0
same,Subjects with ALT ≥10 × ULN,[3]; [16],0
same,Subjects with ALT ≥20 × ULN,[3]; [16],0
same,Subjects with AST ≥10 × ULN,[3]; [16],0
same,Subjects with AST ≥20 × ULN,[3]; [16],0
same,Subjects with ALT ≥5 × ULN,[3]; [17],0
same,Subjects with ALT ≥10 × ULN,[3]; [17],0
same,Subjects with ALT ≥20 × ULN,[3]; [17],0
same,Subjects with AST ≥10 × ULN,[3]; [17],0
same,Subjects with AST ≥20 × ULN,[3]; [17],0

# — patent publication US20260232767A1, “INTERLEUKIN-23 RECEPTOR ANTAGONIST PEPTIDES FOR USE IN THE TREATMENT OF PSORIASIS” (Janssen Pharmaceutica NV, priority 2023, published 2026)
